Assay results as given in US20060217340A1, “Methods and products for treating hypertension by modulation of TRPC3 channel activity” (University of Vermont and State Agricultural College, priority 2005, published 2006).

Assays:
[1] = Blood pressure (MAP) by tailcuff; format: in vivo, rat; conditions: 12 days subcutaneous osmotic pump, tailcuff just prior to euthanasia
Description: Animals and tissues. Twelve- to 16-week old male Sprague-Dawley rats, spontaneously hypertensive rats (SHR), and Wistar-Kyoto rats ([…]) (Charles River Laboratories, St. Constant, Canada) were studied. All animal use procedures were in accordance with institutional guidelines and approved by the institutional Animal Care and Use Committee at the University of Vermont. Rats were euthanized with an injection of pentobarbitone (150 mg/kg ip) followed by exsanguination. The brain was removed and cerebellar and cerebral arteries (between 125 and 225 μm diameter) were dissected free in ice-cold MOPS-buffered saline solution containing (in mM): 3 MOPS, 145 NaCl, 5 KCl, 1 MgSO4.7H2O, 2.5 CaCl2, 1 KH2PO4, 0.02 EGTA, 2 pyruvate, 5 glucose and 1% bovine serum albumin (BSA) at pH 7.4. Angiotensin II or a control vehicle (physiological saline solution) was administered for 12 days using a subcutaneous osmotic pump. Blood pressures (MAP) were measured by tailcuff just prior to euthanasia and averaged 93±2 mm Hg in control rats and 146±5 mm Hg in Angiotensin II treated rats.

TRPC6 = experiment: Western analysis of TRPC6 protein expression in arteries; format: cell-based, rat; conditions: Angiotensin-II hypertensive rats; cerebral arteries
Description: (§1) Western Analysis. Arterial segments were homogenized in lysis buffer (5 minutes, 4° C.) containing (in mM): 40 CAPS, 1 DL-Dithiothreitol (DTT), 10 EDTA, 15 MgCl2, 115 NaCl, 1 NaOrthovanadate, 1 NaF, 2.5 Urea, and 0.25% deoxychlorate, 10% glycerol, 1% NP-40, 0.2% SDS, and 1:50 mammalian protease inhibitor cocktail (Sigma, St. Louis, Mo., USA). Equal amounts of sample protein were separated on a 10% polyacrylamide gel and transferred to a nitrocellulose membrane. The membranes were exposed to a TRPC3 or TRPC6 polyclonal antibody (anti-rabbit 1:200 dilution, Alomone Labs, Jerusalem, Israel) and a […] (GAPDH) monoclonal antibody (anti-mouse, 1:1000 dilution, Chemicon Labs, Temecula, Calif., USA). Alexa-Fluor 680® goat anti-rabbit (Molecular Probes, Eugene, Oreg., USA) and IRDyeTM800 anti-mouse (Rockland Immunochemicals, Gilbertsville, Pa., USA) were used to fluorescently label the TRPC3 and GAPDH antibodies respectively. The density of signals specific for the TRPC3 and GAPDH bands in a given lane on a membrane were measured after scanning the membrane with an Odyssey® infared imaging system (Li-COR Biosciences, Lincoln, Nebr., USA). Quantified amounts were normalized to a total protein amount lane on the polyacrylamide gel.
Oligodeoxynucleotide Sequences and Reverse Permeabilization. […]

TRPC3 = experiment: Western analysis of TRPC3 protein expression in arteries; format: cell-based, rat; conditions: Angiotensin-II hypertensive rats; cerebral and mesenteric arteries
Description: as §1
Oligodeoxynucleotide Sequences and Reverse Permeabilization. TRPC6 sense and antisense oligodeoxynucleotides (ODN's) were designed as previously described (Welsh et al 2002 Circ Res 90, 248-250) and were as follows: sense, 5′-[…]-3′ (SEQ ID: 3) and 5′-GCACACGCAGCCTCTTCAC-3′ (SEQ ID: 4) antisense, 5′-[…]-3′ (SEQ ID: 5) and 5′-[…]-3′ (SEQ ID: 6). TRPC3 sense and antisense ODN's were designed based on the rat TRPC3 gene (Ohki et al 2000 J Biol Chem 275: 39055-39060) and are as follows: sense, 5′-[…]-3′ (SEQ ID: 7) and 5′-[…]-3′ (SEQ ID: 8); anti-sense, 5′-[…]-3′ (SEQ ID: 9) and 5′-[…]-3′ (SEQ ID: 10). The last five bases on the 5′ and 3′ end were phosphorothioated in order to limit ODN degradation. […]

Angiotensin II (DRVYIHPF; Angiotensin-2; UniProt P01015 25-32, looked up)
Blood pressure (MAP) [1]: 146±5 mm Hg
expression of TRPC6 versus normotensive controls (TRPC6): increased expression
expression of TRPC3 versus normotensive controls (TRPC3): trends towards increased expression
